The values that follow come from BindingDB's records for patent US11866405 (Astrazeneca, 2024).

The target in the assay is T1, Interleukin-1 receptor-associated kinase 4 (Homo sapiens, UniProt Q9NWZ3).
T1 sequence (Q9NWZ3 whole entry): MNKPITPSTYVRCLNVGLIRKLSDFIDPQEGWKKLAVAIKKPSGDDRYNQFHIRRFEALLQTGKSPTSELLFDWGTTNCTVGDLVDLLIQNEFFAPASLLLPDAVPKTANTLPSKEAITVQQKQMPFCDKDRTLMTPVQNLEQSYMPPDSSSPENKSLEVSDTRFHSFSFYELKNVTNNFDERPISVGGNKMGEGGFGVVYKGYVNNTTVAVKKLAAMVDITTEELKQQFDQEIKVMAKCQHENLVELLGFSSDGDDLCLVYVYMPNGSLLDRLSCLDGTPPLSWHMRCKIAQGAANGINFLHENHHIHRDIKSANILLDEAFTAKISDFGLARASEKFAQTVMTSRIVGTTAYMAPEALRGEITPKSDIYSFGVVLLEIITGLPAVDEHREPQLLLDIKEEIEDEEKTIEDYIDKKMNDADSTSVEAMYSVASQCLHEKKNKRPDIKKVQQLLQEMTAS
In words: Potency of IRAK4 Inhibitor Compounds in IRAK4 Enzyme Assay. The procedure: The inhibitory activity of compounds against IRAK4 were determined in an enzymatic assay using mass spectrometry readout. Ten point half-log compound concentration response curves, with a top concentration of 1 μM or 10 μM, were generated from 10 mM stocks of compound solubilized in DMSO using an Echo 655 (Labcyte Inc) and added to 384 well assay plates (Greiner #781280). To the assay plates, 10 μL of human recombinant IRAK4 protein (Life Technologies #PV4002) diluted to a final concentration of 0.2 nM in assay buffer (50 mM Tris-HCl pH 7.4, 10 mM MgCl, 5 mM glutathione, 0.01% BSA, 3 mM ATP) was added. The enzyme was incubated with the compounds at room temperature for 15 minutes before a peptide substrate ([…], Innovagen custom synthesis, 10 mM in DMSO) was added to each well to a final concentration of 10 μM using an Echo 655 (Labcyte Inc). After two hours at room temperature, the reaction was stopped with 90 μL of 0.4% formic acid (Merck #33015). The unphosphorylated and phosphorylated peptide were measured by LC-MS/MS on a Waters TQ-S mass spectrometer. Peaks were integrated using the TargetLynx software and the ratios between phosphorylated and unphosphorylated peptides were calculated.

Molecule `C[C@@]1(O)CCC[C@H](n2cc3cc(C(=O)Nc4cnn5cccnc45)c(OC4CC4)cc3n2)C1` (relative stereo) [US11866405, Example 54] showed an IC50 of 0.6 nM.

Regarding `COc1cc2nn([C@H]3CCC[C@H](O)[C@@H]3C)cc2cc1C(=O)Nc1cnc2cccnn12` (relative stereo) [US11866405, Example 106], the IC50 came out at 0.6 nM.

For the molecule `COc1cc2nn([C@@H]3CC[C@]4(CCC(=O)N4C)C[C@H]3C)cc2cc1C(=O)Nc1cnc2cccnn12` (relative stereo; form 2) [US11866405, Example 122], half-maximal inhibition (IC50) was put at 0.7 nM.

In the case of `COc1cc2nn([C@H]3CC[C@H](O)C[C@@H]3C)cc2cc1C(=O)Nc1cnn2cccnc12` [US11866405, Example 40], the IC50 was determined as 6.3 nM.

`COc1cc2nn([C@H]3CC[C@H](N(C)C(=O)[C@H](C)O)CC3)cc2cc1C(=O)Nc1cnc2cccnn12` [US11866405, Example 94] came in with an IC50 of 0.3 nM.

Molecule `C[C@H]1C[C@@H](O)CC[C@@H]1n1cc2cc(C(=O)Nc3cnn4cccnc34)c(OC3CC3)cc2n1` [US11866405, Example 45] had an IC50 of 1.4 nM.

`COc1cc2nn([C@H]3CC[C@H](N(C)C(=O)[C@@H]4CC[C@H](O)C4)CC3)cc2cc1C(=O)Nc1cnn2cccnc12` (relative stereo) [US11866405, Example 115] returned an IC50 of 0.8 nM.

A word on the IC50: it is the concentration that gives 50% inhibition. Low values mean inhibition by little substance, high ones a need for much substance.
